Measurements taken from patent US4299822A, “N-Trifluoroacetyladriamycin-14-O-hemiglutarate and -hemiadipate and therapeutic compositions containing same” (Sidney Farber Cancer Institute, Inc., priority 1980, dated 1981).
Values after ≈ are worked out from the molar mass of the structure shown. Like-named read-outs stand apart in the source and are kept apart here.

Tests used:
[1] = test system: CCRF-CEM cells; test: growth inhibition of CCRF-CEM cell line in culture; assay type: cell-based; conditions: Homo sapiens, read-out: ID50 (dose required to inhibit growth of the cultures by 50% relative to control)
Excerpt: The in vitro assays measure the growth inhibiting activity of the materials against the CCRF-CEM cell line in culture. […] The in vivo evaluations were made by preparing a 0.2 to 0.7% by weight solution of the active agent in a formulation consisting of 10% by volume of each polyethoxylated castor oil and ethanol in saline and injecting the dosage intraperitoneally. The evaluations were made of the antitumor activity against the murine P388 and murine L1210 leukemias in BDF1 male mice according to standard National Cancer Institute protocols as set forth by Geran et al., Cancer Chemotherap. Rep., Part 3, Volume 3, pages 1 et seq.

[2] = test system: murine P388 leukemia; test: in vivo antitumor activity against murine P388 leukemia, ip qd 1-4; design: species or system mouse (BDF1 male mice)
Method: (§1) The toxicity and therapeutic effectiveness of the new compounds and active agents of the present invention are shown by in vitro assays and by in vivo evaluations in mice. The in vitro assays measure the growth inhibiting activity of the materials against the CCRF-CEM cell line in culture. The cell line was derived from the peripheral blood of a child with lymphoblastic leukemia as described by Foley et al., Cancer, Volume 18, page 522 et seq. (1965), and the assays were carried out by the procedure of Foley and Lazarus, Biochem. Pharmacol., Volume 16, pages 659 et seq. (1967), the results being reported in terms of the dose in micromoles per liter required to inhibit growth of the cultures by 50% relative to control cultures to which no drug had been added (ID50). The in vivo evaluations were made by preparing a 0.2 to 0.7% by weight solution of the active agent in a formulation consisting of 10% by volume of each polyethoxylated castor oil and ethanol in saline and injecting the dosage intraperitoneally. The evaluations were made of the antitumor activity against the murine P388 and murine L1210 leukemias in BDF1 male mice according to standard National Cancer Institute protocols as set forth by Geran et al., Cancer Chemotherap. Rep., Part 3, Volume 3, pages 1 et seq. (1972) , except that a qd 1-4 schedule was used in place of qd 1-9 in order to conserve materials.
(§2) Optimal dosage was determined by testing doses which were at several multiples of 10 milligrams/kilogram of body weight. Some effectiveness can be observed at dosages ranging from 30 to 70 milligrams/kilogram of body weight, depending upon the particular compound employed.
The following table summarizes the in vivo antitumor activity of the same compounds as those in Table I, evaluated against murine P388 leukemia as described above. All compounds were administered intraperitoneally, adriamycin in clinical formulation (1 part adriamycin plus 5 parts lactose, in 0.9% saline), the other compounds in 10% Emulphor EL-620, 10% ethanol, 80% isotonic saline.

[3] = hydrolytic stability in aqueous buffers, TLC quantification of N-trifluoroacetyladriamycin; assay type: physicochemical; conditions: for degraded at 24 h: aqueous buffer, dark, read-out: Percent hydrolyzed; for resistance to hydrolysis: aqueous solutions
Excerpt: The results were as follows:

[4] = test system: mice; test: toxicity to mice; assay type: in vivo, mouse
Method: as §1

[5] = cytotoxicity or anti-tumor activity (general statement); conditions: for cytotoxicity or anti-tumor activity relative to adriamycin: vs adriamycin; for cytotoxicity or anti-tumor activity relative to N-trifluoroacetyladriamycin-14-valerate: vs valerate
Method: as §1

[6] = solubility in water; conditions: for solubility: phosphate buffer, pH 7.4, aqueous buffer; for solubility in water relative to N-trifluoroacetyladriamycin-14-valerate: physiological pH in the range pH 7.2-7.5
[7] = test system: murine L1210 leukemia; test: in vivo antitumor activity against L1210 leukemia, ip days 1-4; design: species or system mouse (BDF1 male mice)
Method: as §1, §2
All compounds were administered intraperitoneally; in tests (1) and (2), the compounds were in 10% Emulphor EL-620, 10% ethanol, and 80% isotonic saline. In test (3) the compound was in aqueous buffer containing monobasic potassium phosphate and sodium hydroxide (0.05 M), pH 7.40: […]

[8] = clinical use; cited from earlier work
[9] = steroid administration to patients with vehicle-associated chest pain; cited from earlier work
[10] = each dose 30.0 mg/kg ip, 10% Emulphor EL-620, 10% ethanol, 80% saline
[11] = each dose 40.0 mg/kg ip, 10% Emulphor EL-620, 10% ethanol, 80% saline
[12] = each dose 50.0 mg/kg ip, 10% Emulphor EL-620, 10% ethanol, 80% saline
[13] = each dose 60.0 mg/kg ip, 10% Emulphor EL-620, 10% ethanol, 80% saline
[14] = each dose 70.0 mg/kg ip, 10% Emulphor EL-620, 10% ethanol, 80% saline
[15] = 50.0 mg/kg/d × 4 ip, 10% Emulphor EL-620, 10% ethanol, 80% isotonic saline
[16] = 60.0 mg/kg/d × 4 ip, 10% Emulphor EL-620, 10% ethanol, 80% isotonic saline
[17] = test (3): 50.0 mg/kg/d × 4 ip, aqueous phosphate buffer (0.05 M) pH 7.40
[18] = test (3): 60.0 mg/kg/d × 4 ip, aqueous phosphate buffer (0.05 M) pH 7.40
[19] = each dose 1.0 mg/kg ip, clinical formulation (lactose, 0.9% saline)
[20] = each dose 2.0 mg/kg ip, clinical formulation (lactose, 0.9% saline)
[21] = each dose 3.0 mg/kg ip, clinical formulation (lactose, 0.9% saline)
[22] = each dose 4.0 mg/kg ip, clinical formulation (lactose, 0.9% saline)
[23] = each dose 5.0 mg/kg ip, clinical formulation (lactose, 0.9% saline)

Compound: COc1cccc2c1C(=O)c1c(O)c3c(c(O)c1C2=O)CC(O)(C(=O)COC(=O)CCCC(=O)O)CC3OC1CC(NC(=O)C(F)(F)F)C(O)C(C)O1 (centres unmarked) [N-Trifluoroacetyladriamycin-14-O-hemiglutarate]
- IC50 ([1]; CCRF-CEM cells, in vitro): 280 nM
- % ILS (percent increase in life span relative to untreated controls) [2, 10]: 81%
- No. alive on d 30 [2, 10]: 2/7
- No. alive on d 60 [2, 10]: 0/7
- Survival, Median day of death (range) [2, 10]: 20.0 (20-35) day
- % ILS (percent increase in life span relative to untreated controls) [2, 11]: 109%
- No. alive on d 30 [2, 11]: 2/7
- No. alive on d 60 [2, 11]: 1/7
- Survival, Median day of death (range) [2, 11]: 23.0 (20-35) day
- % ILS (percent increase in life span relative to untreated controls) [2, 12]: 172%
- No. alive on d 30 [2, 12]: 3/7
- No. alive on d 60 [2, 12]: 2/7
- Survival, Median day of death (range) [2, 12]: 30.0 (20-42) day
- No. alive on d 30 [2, 13]: 5/7
- No. alive on d 60 [2, 13]: 4/7
- Survival, day of death (range only, no median) [2, 13]: 20,29 day
- No. alive on d 30 [2, 14]: 5/7
- No. alive on d 60 [2, 14]: 4/7
- Survival, day of death (range only, no median) [2, 14]: 25 to 36 days
- degraded at 24 h ([3]; pH 7.4, pH 7.40, 4° C.): 0%
- degraded at 24 h ([3]; pH 7.4, pH 7.40, 27° C.): 1%
- degraded at 24 h ([3]; pH 9, pH 9.00, 4° C.): < 0.5%
- degraded at 24 h ([3]; pH 9, pH 9.00, 27° C.): 3%
- resistance to hydrolysis [3]: excellent resistance to hydrolysis
- toxicity to mice relative to adriamycin or daunomycin [4]: significantly less toxic to mice than adriamycin or daunomycin
- cytotoxicity or anti-tumor activity relative to adriamycin [5]: greater than that of adriamycin
- cytotoxicity or anti-tumor activity relative to N-trifluoroacetyladriamycin-14-valerate [5]: approximately equal to that of N-trifluoroacetyladriamycin-14-valerate
- solubility [6]: 65 mg/mL (≈ 86.2 mM)
- solubility in water relative to N-trifluoroacetyladriamycin-14-valerate [6]: many times greater than that of N-trifluoroacetyladriamycin-14-valerate

Compound: COc1cccc2c1C(=O)c1c(O)c3c(c(O)c1C2=O)CC(O)(C(=O)COC(=O)CCCCC(=O)O)CC3OC1CC(NC(=O)C(F)(F)F)C(O)C(C)O1 (centres unmarked) [N-Trifluoroacetyladriamycin-14-O-hemiadipate]
- IC50 ([1]; CCRF-CEM cells, in vitro): 310 nM
- No. alive on d 30 [2, 11]: 6/7
- No. alive on d 60 [2, 11]: 6/7
- Survival, day of death (range only, no median) [2, 11]: 25 days
- No. alive on d 30 [2, 12]: 6/7
- No. alive on d 60 [2, 12]: 5/7
- Survival, day of death (range only, no median) [2, 12]: 23,45 day
- No. alive on d 30 [2, 13]: 6/7
- No. alive on d 60 [2, 13]: 6/7
- Survival, day of death (range only, no median) [2, 13]: 24,93 day
- No. alive on d 30 [2, 14]: 7/7
- No. alive on d 60 [2, 14]: 7/7
- Survival, day of death (range only, no median) [2, 14]: 61 to 77 days
- % ILS (percent median increase in life span relative to untreated controls, calculated as of day 50) [7, 15]: > 456%
- No. alive on d 50 [7, 15]: 7/7
- % ILS (percent median increase in life span relative to untreated controls, calculated as of day 50) [7, 16]: > 456%
- No. alive on d 50 [7, 16]: 6/7
- prolonging the survival of mice bearing the L1210 leukemia ([7]; ip): highly effective in prolonging the survival of mice bearing the L1210 leukemia
- % ILS (percent median increase in life span relative to untreated controls, calculated as of day 50) [7, 17]: > 456%
- No. alive on d 50 [7, 17]: 5/7
- % ILS (percent median increase in life span relative to untreated controls, calculated as of day 50) [7, 18]: > 456%
- No. alive on d 50 [7, 18]: 7/7
- degraded at 24 h ([3]; pH 7.4, pH 7.40, 4° C.): 0%
- degraded at 24 h ([3]; pH 7.4, pH 7.40, 27° C.): 0.5%
- degraded at 24 h ([3]; pH 8, pH 8.00, 4° C.): 0.3%
- degraded at 24 h ([3]; pH 8, pH 8.00, 27° C.): 1%
- degraded at 24 h ([3]; pH 9, pH 9.00, 4° C.): 0.5%
- resistance to hydrolysis [3]: excellent resistance to hydrolysis
- toxicity to mice relative to adriamycin or daunomycin [4]: significantly less toxic to mice than adriamycin or daunomycin
- cytotoxicity or anti-tumor activity relative to adriamycin [5]: greater than that of adriamycin
- cytotoxicity or anti-tumor activity relative to N-trifluoroacetyladriamycin-14-valerate [5]: approximately equal to that of N-trifluoroacetyladriamycin-14-valerate
- solubility [6]: 60 mg/mL (≈ 78.2 mM)
- solubility in water relative to N-trifluoroacetyladriamycin-14-valerate [6]: many times greater than that of N-trifluoroacetyladriamycin-14-valerate

Compound: COc1cccc2c1C(=O)c1c(O)c3c(c(O)c1C2=O)C[C@@](O)(C(C)=O)C[C@@H]3O[C@H]1C[C@H](N)[C@H](O)[C@H](C)O1 [daunorubicin]
- toxic side-effects (dose-limiting) [8]: acute myelosuppression and cumulative dose-related cardiac toxicity

Compound: C[C@]12CCC(=O)C=C1CC[C@@H]1[C@@H]2[C@@H](O)C[C@@]2(C)[C@H]1CC[C@]2(O)C(=O)COC(=O)CCC(=O)O [hydrocortisone hemisuccinate]
- effect on chest pain symptom complex during valerate infusion [9]: eliminated the symptom complex in those cases

Compound: COc1cccc2c1C(=O)c1c(O)c3c(c(O)c1C2=O)C[C@@](O)(C(=O)CO)C[C@@H]3O[C@H]1C[C@H](N)[C@H](O)[C@H](C)O1 [Adriamycin]
- IC50 ([1]; CCRF-CEM): 50 nM
- % ILS (percent increase in life span relative to untreated controls) [2, 19]: 81%
- No. alive on d 30 [2, 19]: 0/7
- Survival, Median day of death (range) [2, 19]: 20.0 (18-27) day
- % ILS (percent increase in life span relative to untreated controls) [2, 20]: 90%
- No. alive on d 30 [2, 20]: 2/7
- No. alive on d 60 [2, 20]: 1/7
- Survival, Median day of death (range) [2, 20]: 21.0 (20-32) day
- % ILS (percent increase in life span relative to untreated controls) [2, 21]: 181%
- No. alive on d 30 [2, 21]: 4/7
- No. alive on d 60 [2, 21]: 2/7
- Survival, Median day of death (range) [2, 21]: 31.0 (23-36) day
- % ILS (percent increase in life span relative to untreated controls) [2, 22]: 63%
- No. alive on d 30 [2, 22]: 0/7
- Survival, Median day of death (range) [2, 22]: 18.0 (7-28) day
- No. alive on d 30 [2, 23]: 0/7
- Survival, Median day of death (range) [2, 23]: 9.0 (7-27) day
- % ILS (percent increase in life span relative to untreated controls) ([2]; ip, 5 mg/kg): -19%
- toxic side-effects (dose-limiting) [8]: acute myelosuppression and cumulative dose-related cardiac toxicity
